Source: patent US6949522B2, “β-2′- or 3′-halonucleosides” (Pharmasset, Inc., priority 2001, dated 2005)
Where two headings read alike, the source gives them in different places.

Legend:
rRNA gene = assay type: cell-based, human; details: HepG2, 10 μM, 7 days
Method: Low passage number HepG2 cells, obtained from American Tissue Culture Collection (ATCC, Manassas, Va.) were seeded at 5,000 cells/well in collagen-coated 96-well plates. Test compounds were added to the media to obtain a final concentration of 10 μM. On culture day 7, cellular nucleic acids were prepared by using commercially available columns (RNeasy 96 kit, Qiagen).
The rRNA gene primers and probes were purchased from Applied Biosystems. […] The comparative Ct method uses arithmetic formulas in which the amount of target (COXII gene) is normalized to an endogenous reference (β-actin gene or rRNA gene) and is relative to a calibrator (no drug control at day 7). The arithmetic formula for this approach is given by 2-ΔΔCt (User bulletin # 2, Applied Biosystems).
In order to study the consequences of possible inhibitory effects of these compounds on host DNA polymerases, nuclear and rnitochondrial DNA levels were quantified and compared to no-treatment controls. Cells were incubated for 7 days with 10 μM of each compound, followed by total nucleic acid extractions and multiplex Q-PCR of the rRNA gene and the mitochondrial COXII gene. Nucleic acids from cells exposed to the control compounds were also amplified in multiplex for mitDNA and the β-actin gene.

HIV-1 xxBRU (wild type) = assay: HIV-1 RT-assay on supernatant of acutely infected human PBM cells, strain xxBRU; assay type: cell-based; details: 5 days, RT activity reduced by 90%
Method: (§1) Human PBM cells (1×10^6 cells/T25 flask) were PHA stimulated for 2 or 3 days, and infected with either a wild type (LAI and xxBRU) or a 3TC-resistant (xxBRU 184V) HIV-1 strain at 100 TCID50, as previously described (27). The culture was kept for 5 days in presence of test compounds at serial 1-log dilutions. Subsequently, human PBM cells were removed from the culture supernatant by centrifugation (10 minutes, 400×g, 4° C.). This clarified supernatant was tested either in the RT-assay, or in the Q-RT-PCR assay.
(§2) Virus particles present in a 1 mL aliquot of culture supernatant were concentrated by high-speed centrifugation (2 hours, 20,000×g, 4° C.). The supernatant was then removed and the virus pellet was dispensed into a 100 μL virus solubilization buffer (VSB: 0.5% Triton X-100; 0.8 M NaCl, 0.5 mM phenylmethylsulfonyl, 20% glycerol, 50 mM Tris.HCl pH 7.8). A 10 μL aliquot of RT-VSB was mixed with 75 μL RT cocktail (60 mM Tris.HCl pH 7.8, 12 mM MgCl2, 6 mM DTT, 6 μg/mL poly (rA)n-oligo (dT)10-12, 1.2 mM dATP, and 80 μCi/mL 3H-TTP) and incubated for 2 hours at 37° C. Subsequently 100 μL of 10% TCA was added, and the total amount of incorporated 3H-TTP was determined.
(§3) HIV-1 present in culture supernatant fluids was quantified by two different methodologies: i) the Q-RT-PCR with read-out in log copies/mL; and ii) the endogenous viral RT assay on cell supernatant with read-out in log counts per minute/mL (CPM/mL). Upon addition of antiviral compounds to the culture media, a dose-related decrease in virus production was observed. Although the two methodologies measured different parameters (viral RNA versus active RT enzyme), results were not markedly different from each other. The HIV-1 Q-RT-PCR results were compared with a previously established cell-based antiviral drug evaluation assay (endogenous HIV-1 RT polymerization activity in cell supematant)(27).

[1] = test system: 3TC-resistant (xxBRU 184V) HIV-1; assay: HIV-1 RT-assay on supernatant of acutely infected human PBM cells, strain xxBRU 184V; assay type: cell-based; details: for EC90: read-out: RT-Assay 184V EC90
Method: as §1, §2, §3

BVDV (strain NADL) = assay: BVDV Q-RT-PCR assay in MDBK cells; assay type: cell-based, bovine viral diarrhea virus; details: read-out: BVDV assay Q-PCR EC90
Method: Madin-Darby Bovine Kidney (MDBK) cells were maintained in DMEM/F12 supplemented with 10% heat-inactivated horse serum at 37° C. in a humidified, 5% CO2 atmosphere. Cells were seeded in 96-well plates at 5×10^3 cells/wcll and incubated for 1 hour. BVDV (strain NADL) was used to infect the cells in monolayer at MOI 0.02. After 45 minutes of infection, the viral inoculum was removed and the cells were washed twice. Media or media containing test compound was added to these cells, followed by 24 hour incubation. Cell supernatant fluids were collected, clarified by centrifugation (2 minutes, 3,000 g, room temperature) and viral RNA was prepared (QIAamp Viral RNA mini Kit, Qiagen). Viral RNA was detected in real-time RT-PCR.

HBV = HBV Q-PCR assay in HepAD38 (AD38) cells; assay type: cell-based, hepatitis B virus; details: for EC90: read-out: HBV assay Q-PCR EC90
Method: The HepAD38 cell line replicates HBV under conditions that can be regulated with tetracycline (12, 15). In the presence of this drug, the cell supernatant is virtually free of viral DNA, but upon the removal of tetracycline from the culture medium, these cells secrete virus-like particle into the supernatant (12). HepAD38 cells were seeded at 5×10^4 cells/well in a 96-well plate in seeding medium (DMEM/F12+10% FBS, 50 μg/mL penicillin, 50 μg/mL streptomycin, 100 μg/mL kanamycin, 400 μg/mL G418, and 0.3 μg/mL tetracycline) and incubated for 2 days at 37° C. in a 5% CO2 humid atmosphere. The seeding media was removed, and cells were washed 3 times with PBS. Cells were then incubated with 200 μL assay medium (DMEM/F12+10% FBS+P/S/K) containing either no compound, test compound, or control drugs at 10 μM. After a 5-day incubation, the cell supernatant was collected and stored at −70° C. until HBV DNA was quantified. HBV DNA was extracted from supernatant using QiaAmp DNA blood Mini kit (Qiagen) and nucleic acids eluted in 200 μL. Viral DNA was detected in Q-PCR. The TaqMan probe and primers were designed using the Primer Express software (Applied Biosystems) and cover highly conserved sequences complementary to the DNA sequences present in HBsAg (24). A total of 5 μL DNA was amplified using reagents and conditions as described by the manufacturer (Applied Biosystems). […]

[2] = Human immunodeficiency virus 1, PBMC, 120 h
[3] = Bovine viral diarrhea virus isolates and strains, MDBK cells, 24 hour incubation, viral RNA in supernatant
[4] = AD38 cells, 5-day incubation, HBV DNA in supernatant
[5] = human PBM cells, 5 days, RT activity reduced by 90%
[6] = MDBK cells, 24 hour incubation, viral RNA in supernatant

| Structure (SMILES) | Average ΔCt ± SD rDNA (rRNA gene) | Average ΔΔCt ± SD rDNA-β-actin (rRNA gene) | EC90 (HIV-1 xxBRU (wild type); [2]) [µM] | EC90 [1, 2] [µM] | EC90 (BVDV (strain NADL); [3]) [µM] | EC90 (HBV; Hepatitis B virus, HePAD38, 120 h) [µM] | RT-Assay FI, fold increase (EC90 HIV-1184V/EC90 HIV-1xxBRU) [1] | EC90 (BVDV (strain NADL); Bovine viral diarrhea virus isolates and strains, MDBK, 24 h) [µM] | EC90 (HIV-1 xxBRU (wild type)) [µM] | EC90 (HBV; [4]) [µM] | EC90 [1, 5] [µM] | EC90 (BVDV (strain NADL); [6]) [µM] | reduction of release of HBV DNA in the supernatant (HBV; 10 μM, 5 days, HepAD38 cells) [log] | EC90 (HBV; Hepatitis B virus, HePAD38, 120 h, AD38 cells, 5-day incubation, HBV DNA in supernatant) [µM] |
| --- | --- | --- | --- | --- | --- | --- | --- | --- | --- | --- | --- | --- | --- | --- |
| Cc1cn([C@H]2C[C@H](N=[N+]=[N-])[C@@H](CO)O2)c(=O)[nH]c1=O [AZT, 3′-azido-3′-deoxythymidine, reference compound] | 0.86 ± 0.55 | 0.76 ± 0.87 | 0.01 | 0.002 | > 200 | – | – | – | – | – | – | – | – | – |
| Nc1ccn([C@@H]2C=C(F)[C@H](CO)O2)c(=O)n1 [Compound 10, 1-(2,3-Dideoxy-3-fluoro-β-L-glycero-pent-2-eno-furanosyl)cytosine] | −0.08 ± 0.50 | – | 35.5 | 572 | – | ≥ 100 | 16.1 | > 200 | – | – | – | – | – | – |
| Nc1nc(=O)n([C@@H]2S[C@H](CO)C=C2F)cc1F [Compound D-18, (−)-1-[(1S,4R)-2,3-dideoxy-2,3-didehydro-2-fluoro-4-thio-β-D-ribofuranosyl]-5-fluorocytosine] | −0.45 ± 0.60 | – | – | – | – | – | – | – | 119 | > 100 | > 100 | > 200 | – | – |
| Nc1ccn([C@H]2S[C@@H](CO)C=C2F)c(=O)n1 [Compound L-17, (+)-1-[(1S,4R)-2,3-dideoxy-2,3-didehydro-2-fluoro-4-thio-β-L-ribofuranosyl]-cytosine] | 0.49 ± 0.77 | – | – | – | – | – | 1,121 | – | 1.4 | > 100 | 1570 | > 200 | – | – |
| Nc1ccn([C@@H]2CS[C@H](CO)O2)c(=O)n1 [Compound 3TC, (−)-β-2′,3′-dideoxy-3′-thiacytidine, reference compound] | 0.47 ± 0.51 | 0.36 ± 0.66 | 0.08 | 535 | > 200 | – | 6,688 | – | – | 3 | – | – | ~1.5 | 2.9 |
| Nc1ccn([C@@H]2S[C@H](CO)C=C2F)c(=O)n1 [Compound D-17, (−)-1-[(1S,4R)-2,3-dideoxy-2,3-didehydro-2-fluoro4-thio-β-D-ribofuranosyl]-cytosine] | 0.81 ± 0.60 | – | – | – | – | – | 25.0 | – | 5 | > 100 | 125 | > 200 | – | – |
| Nc1ccn([C@@H]2C=C(F)[C@H](CO)O2)c(=O)n1 [Compound 23, 1-(2,3-Didcoxy-3-fluoro-β-L-glycero-pent-2-eno-furanosyl)cytosine] | −0.51 ± 0.35 | – | – | – | – | – | 586 | – | 0.14 | 1 | 82 | > 200 | – | – |
| Nc1nc(=O)n([C@H]2S[C@@H](CO)C=C2F)cc1F [Compound L-18, (+)-1-[(1S,4R)-2,3-dideoxy-2,3-didehydro-2-fluoro-4-thio-β-L-ribofuranosyl]-5-fluoro-cytosine] | 0.10 ± 0.44 | – | – | – | – | – | >100 | – | 1.1 | > 100 | > 100 | > 200 | – | – |
